Patent publication US20260078119A1, “DEGRADER COMPOUNDS AND USES THEREOF” (Bristol-Myers Squibb Company, priority 2024, published 2026)

How the values were obtained:
CAL-51 cells = test: CAL-51 Cell Proliferation Assay; type: cell-based; details: for EC50: Homo sapiens, 120 hours incubation, 10-point dose response, 4-fold dilutions starting at 10 μM, Cell-Titer-Glo, read-out: CAL-51 Prolif EC50; for CAL-51 Prolif Ymin: minimal percent of DMSO control observed in the concentrations tested (Ymin-obs), 120 hours
Summary of the method: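 EC50 comes from a four-parameter logistic fit of blank-corrected, DMSO-normalised CellTiter-Glo signal after 120 h growth (37 °C, 350 cells/well, RPMI complete medium). Compounds ran as 10-point 4-fold series starting at 10 μM, duplicate, 0.1% DMSO. Ymin-obs records the minimal percent of DMSO control observed.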

FAK = target: T1, FAK (Homo sapiens, UniProt Q05397); test: FAK-HiBiT Degradation Assay; type: cell-based; details: for DC50: JHH-4-FAK-HiBiT clone d01 cells, two hours incubation, 10-point dose response, 3-fold dilution starting at 1 μM, Nano-Glo HiBiT luminescence, read-out: FAK HiBiT EC50; for FAK HiBiT Ymin: lower limit of the four parameter fit (value A), Ymax derived using DMSO control, JHH-4-FAK-HiBiT cells, two hours
T1 construct: homozygous knock-in of a HiBiT tag (Promega Corporation, Madison, WI) to the C-terminus of the FAK gene in its natural genomic locus; endogenous in cells; host or cells: JHH-4-FAK-HiBiT clone d01 (CRISPR-Cas9 knock-in at the endogenous locus)
Summary of the method: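 Degradation read out by HiBiT lytic luminescence after 2 h compound exposure (top concentration 1 μM, 3-fold, 10 points) in JHH-4 clone d01 bearing endogenous FAK-HiBiT knock-in. Four-parameter logistic fit gave EC50 and Ymin; DMSO wells defined Ymax.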

T1 sequence (Q05397 whole entry): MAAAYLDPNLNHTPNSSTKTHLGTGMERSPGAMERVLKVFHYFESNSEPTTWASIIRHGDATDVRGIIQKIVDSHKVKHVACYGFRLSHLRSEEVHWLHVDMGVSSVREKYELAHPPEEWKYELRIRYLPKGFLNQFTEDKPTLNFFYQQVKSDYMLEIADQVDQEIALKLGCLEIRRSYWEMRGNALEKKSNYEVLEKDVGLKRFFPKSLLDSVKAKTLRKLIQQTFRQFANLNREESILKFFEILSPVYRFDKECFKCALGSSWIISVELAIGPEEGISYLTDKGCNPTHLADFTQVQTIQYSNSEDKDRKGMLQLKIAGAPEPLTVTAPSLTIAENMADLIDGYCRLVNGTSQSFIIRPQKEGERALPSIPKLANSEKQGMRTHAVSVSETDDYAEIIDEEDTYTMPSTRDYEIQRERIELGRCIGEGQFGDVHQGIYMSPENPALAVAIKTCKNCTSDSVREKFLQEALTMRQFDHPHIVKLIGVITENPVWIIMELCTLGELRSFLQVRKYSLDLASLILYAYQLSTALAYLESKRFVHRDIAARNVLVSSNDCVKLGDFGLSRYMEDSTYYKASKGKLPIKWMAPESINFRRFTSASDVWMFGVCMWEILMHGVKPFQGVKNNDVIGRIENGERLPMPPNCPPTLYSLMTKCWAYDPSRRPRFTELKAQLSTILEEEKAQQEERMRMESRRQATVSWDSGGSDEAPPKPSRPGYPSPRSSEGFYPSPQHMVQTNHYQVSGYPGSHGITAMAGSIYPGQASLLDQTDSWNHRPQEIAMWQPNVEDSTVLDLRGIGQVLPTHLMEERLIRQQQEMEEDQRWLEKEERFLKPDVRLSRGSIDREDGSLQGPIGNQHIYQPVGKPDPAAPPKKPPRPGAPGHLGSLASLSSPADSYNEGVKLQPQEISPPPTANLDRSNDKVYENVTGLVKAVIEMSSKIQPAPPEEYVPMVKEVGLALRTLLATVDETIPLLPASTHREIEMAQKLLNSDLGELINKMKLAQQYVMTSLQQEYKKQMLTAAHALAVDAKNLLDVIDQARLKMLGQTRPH

| SMILES | EC50 (CAL-51 cells) [nM] | CAL-51 Prolif Ymin (CAL-51 cells) | DC50 (FAK) [nM] | FAK HiBiT Ymin (FAK) |
| --- | --- | --- | --- | --- |
| N#Cc1cnc(-c2cc(N3CC(F)C3)nc3c2cnn3Cc2ccc3c(c2)CN(C2CCC(=O)NC2=O)C3=O)c(Cl)c1 (stereo not shown) [Example 73, 5-chloro-6-(1-{[2-(2,6-dioxopiperidin-3-yl)-1-oxo-2,3-dihydro-1H-isoindol-5-yl]methyl}-6-(3-fluoroazetidin-1-yl)-1H-pyrazolo[3,4-b]pyridin-4-yl)pyridine-3-carbonitrile] | 3.39 | 23.58 | 6.62 | 11.02 |
| CCOc1cnc(-c2cc(N3CC(F)C3)nc3c2cnn3Cc2ccc3c(c2)CN(C2CCC(=O)NC2=O)C3=O)c(CC)c1 (stereo not shown) [Example 74, 3-(5-{[4-(5-ethoxy-3-ethylpyridin-2-yl)-6-(3-fluoroazetidin-1-yl)-1H-pyrazolo[3,4-b]pyridin-1-yl]methyl}-1-oxo-2,3-dihydro-1H-isoindol-2-yl)piperidine-2,6-dione] | 4.11 | 34.11 | 6.88 | 8.00 |
| N#Cc1ccc(-c2c(F)c(N3CC(F)C3)nc3c2cnn3Cc2ccc3c(c2)CN([C@H]2CCC(=O)NC2=O)C3=O)nc1 [Example 75, 6-[1-({2-[(3S)-2,6-dioxopiperidin-3-yl]-1-oxo-2,3-dihydro-1H-isoindol-5-yl}methyl)-5-fluoro-6-(3-fluoroazetidin-1-yl)-1H-pyrazolo[3,4-b]pyridin-4-yl]pyridine-3-carbonitrile] | 9.67 | 52.27 | 7.95 | 23.15 |
| O=C1CC[C@H](N2Cc3nc(Cn4ncc5c(-c6ncc(C(F)(F)F)cc6Cl)cc(N6CC(F)C6)nc54)ccc3C2=O)C(=O)N1 [Example 76, (3S)-3-[2-({4-[3-chloro-5-(trifluoromethyl)pyridin-2-yl]-6-(3-fluoroazetidin-1-yl)-1H-pyrazolo[3,4-b]pyridin-1-yl}methyl)-5-oxo-5H,6H,7H-pyrrolo[3,4-b]pyridin-6-yl]piperidine-2,6-dione] | 6.15 | 34.59 | 7.97 | 9.51 |
| O=C1CC[C@H](N2Cc3cc(Cn4ncc5c(-c6ncc(C(F)(F)F)cc6Cl)cc(N6CC(F)C6)nc54)cnc3C2=O)C(=O)N1 [Example 77, (3S)-3-[3-({4-[3-chloro-5-(trifluoromethyl)pyridin-2-yl]-6-(3-fluoroazetidin-1-yl)-1H-pyrazolo[3,4-b]pyridin-1-yl}methyl)-7-oxo-5H,6H,7H-pyrrolo[3,4-b]pyridin-6-yl]piperidine-2,6-dione] | 3.67 | 28.95 | 8 | 8.29 |
| O=C1CCC(N2Cc3cc(Cn4ncc5c(-c6ncccc6C(F)(F)F)cc(N6CC(F)C6)nc54)ccc3C2=O)C(=O)N1 (stereo not shown) [Example 79, 3-(5-{[6-(3-fluoroazetidin-1-yl)-4-[3-(trifluoromethyl)pyridin-2-yl]-1H-pyrazolo[3,4-b]pyridin-1-yl]methyl}-1-oxo-2,3-dihydro-1H-isoindol-2-yl)piperidine-2,6-dione] | 3.22 | 23.53 | 8.56 | 10.79 |
| Cc1cc(OC(C)C)cnc1-c1cc(N2CC(F)C2)nc2c1cnn2Cc1ccc2c(c1)CN(C1CCC(=O)NC1=O)C2=O (stereo not shown) [Example 80, 3-(5-{[6-(3-fluoroazetidin-1-yl)-4-[3-methyl-5-(propan-2-yloxy)pyridin-2-yl]-1H-pyrazolo[3,4-b]pyridin-1-yl]methyl}-1-oxo-2,3-dihydro-1H-isoindol-2-yl)piperidine-2,6-dione] | 1.68 | 27.48 | 9.06 | 5.83 |
